Assay results: patent publication US20220380829A1, “Method of Diagonosizing Pathogens and their Antimicrobial Susceptibility” (HANGZHOU DIAN MEDICAL LABORATORY CO., LTD., priority 2019, published 2022)

Assays:
[1] = tested on: Streptococcus pneumoniae; assay: VITEK2 Compact AST (AST-GP68 cards) with penicillin disc diffusion, gold standard culture-based AST; assay type: cell-based
Protocol: (§1) Step 1. Drug susceptibility verification: The Streptococcus pneumoniae isolates were tested for drug susceptibility using bioMérieux Vitek2 Compact System and AST-GP68 cards, and specifically, the susceptibility of penicillin was double checked by disc diffusion method (OXOID, CT0043B), and the combined results were used as the gold standard (culture-based AST).
as §1, with “Sample collection and drug” for “Drug”, “48 clinical” for “The”, “pneumoniae isolates were collected from 18 hospitals across china in a period between May 2017 and October 2019. All” for “pneumoniae”, “card,” for “cards,”

[2] = tested on: Enterococcus faecalis; assay: VITEK2 Compact AST (AST-P639 cards), gold standard culture-based AST; assay type: cell-based
[3] = Resistance profile classification A
[4] = Resistance profile classification B
[5] = Resistance profile classification C
[6] = Resistance profile classification D
[7] = Resistance profile classification G
[8] = Resistance profile classification H
[9] = Resistance profile classification I
[10] = Resistance profile classification J
[11] = Resistance profile classification K
[12] = Resistance profile classification L
[13] = Resistance profile classification M
[14] = Resistance profile classification S
[15] = Resistance profile classification F (first line so labelled, r12)
[16] = Resistance profile classification F (second line so labelled, r13)
Note: key: ‘R’ indicates drug-resistant; ‘S’ indicates drug-susceptible.

Row | Molecule | Blind 1 by AST [1] | blind 2 by AST [1] | Susceptibility of Emterococcus faecalis to 11 antibacterial drugs [2, 3] | Susceptibility of Emterococcus faecalis to 11 antibacterial drugs [2, 4] | Susceptibility of Emterococcus faecalis to 11 antibacterial drugs [2, 5] | Susceptibility of Emterococcus faecalis to 11 antibacterial drugs [2, 6] | Susceptibility of Emterococcus faecalis to 11 antibacterial drugs [2, 7] | Susceptibility of Emterococcus faecalis to 11 antibacterial drugs [2, 8] | Susceptibility of Emterococcus faecalis to 11 antibacterial drugs [2, 9] | Susceptibility of Emterococcus faecalis to 11 antibacterial drugs [2, 10] | Susceptibility of Emterococcus faecalis to 11 antibacterial drugs [2, 11] | Susceptibility of Emterococcus faecalis to 11 antibacterial drugs [2, 12] | Susceptibility of Emterococcus faecalis to 11 antibacterial drugs [2, 13] | Susceptibility of Emterococcus faecalis to 11 antibacterial drugs [2, 14] | Susceptibility of Emterococcus faecalis to 11 antibacterial drugs [2, 15] | Susceptibility of Emterococcus faecalis to 11 antibacterial drugs [2, 16] | other results
1 | C[C@@H](O)[C@H]1C(=O)N2C(C(=O)O)=C(S[C@@H]3CN[C@H](C(=O)Nc4cccc(C(=O)O)c4)C3)[C@H](C)[C@H]12 [ertapenem] | S | S | – | – | – | – | – | – | – | – | – | – | – | – | – | – | –
2 | CC(=O)NC[C@H]1CN(c2ccc(N3CCOCC3)c(F)c2)C(=O)O1 [linezolid] | S | S | S | S | S | S | S | S | S | S | S | S | S | S | – | – | –
3 | CO/N=C(\C(=O)N[C@@H]1C(=O)N2C(C(=O)O)=C(COC(C)=O)CS[C@H]12)c1csc(N)n1 [cefotaxime] | S | R | – | – | – | – | – | – | – | – | – | – | – | – | – | – | –
4 | CN(C)c1cc(NC(=O)CNC(C)(C)C)c(O)c2c1C[C@H]1C[C@H]3[C@H](N(C)C)C(O)=C(C(N)=O)C(=O)[C@@]3(O)C(O)=C1C2=O [tigecycline] | – | – | S | S | S | S | S | S | S | S | S | S | – | S | S | S | –
5 | C[C@@H](O)[C@H]1C(=O)N2C(C(=O)O)=C(S[C@@H]3CN[C@H](C(=O)N(C)C)C3)[C@H](C)[C@H]12 [meropenem] | S | S | – | – | – | – | – | – | – | – | – | – | – | – | – | – | –
6 | CO/N=C(\C(=O)N[C@@H]1C(=O)N2C(C(=O)O)=C(CSc3nc(=O)c(=O)[nH]n3C)CS[C@H]12)c1csc(N)n1 [ceftriaxone] | S | R | – | – | – | – | – | – | – | – | – | – | – | – | – | – | –
7 | CCCCCCCCCC(=O)N[C@@H](Cc1c[nH]c2ccccc12)C(=O)N[C@H](CC(N)=O)C(=O)N[C@@H](CC(=O)O)C(=O)N[C@@H]1C(=O)NCC(=O)N[C@@H](CCCN)C(=O)N[C@@H](CC(=O)O)C(=O)N[C@H](C)C(=O)N[C@@H](CC(=O)O)C(=O)NCC(=O)N[C@H](CO)C(=O)N[C@@H]([C@H](C)CC(=O)O)C(=O)N[C@@H](CC(=O)c2ccccc2N)C(=O)O[C@@H]1C [daptomycin] | – | – | S | S | S | S | S | S | S | S | S | S | S | S | S | S | –
8 | COc1c(N2C[C@@H]3CCCN[C@@H]3C2)c(F)cc2c(=O)c(C(=O)O)cn(C3CC3)c12 [moxifloxacin] | S | S | – | – | – | – | – | – | – | – | – | – | – | – | – | – | –
9 | CC[C@H]1OC(=O)[C@H](C)[C@@H](O[C@H]2C[C@@](C)(OC)[C@@H](O)[C@H](C)O2)[C@H](C)[C@@H](O[C@@H]2O[C@H](C)C[C@H](N(C)C)[C@H]2O)[C@](C)(O)C[C@@H](C)C(=O)[C@H](C)[C@@H](O)[C@]1(C)O [erythromycin] | R | R | R | R | R | S | R | R | R | R | S | S | S | S | R | R | –
10 | C[C@H]1COc2c(N3CCN(C)CC3)c(F)cc3c(=O)c(C(=O)O)cn1c23 [levofloxacin] | S | S | R | R | R | R | R | S | R | S | R | R | S | 8 | S | S | –
11 | CC1(C)S[C@@H]2[C@H](NC(=O)[C@H](N)c3ccccc3)C(=O)N2[C@H]1C(=O)O [ampicillin] | – | – | R | R | R | R | S | S | S | S | S | S | S | S | R | R | Susceptibility of Streptococcus pneumoniae to 14 antibacterial drugs [1, 3]: R; Susceptibility of Streptococcus pneumoniae to 14 antibacterial drugs [1, 4]: R; Susceptibility of Streptococcus pneumoniae to 14 antibacterial drugs [1, 5]: R; Susceptibility of Streptococcus pneumoniae to 14 antibacterial drugs [1, 6]: R; Susceptibility of Streptococcus pneumoniae to 14 antibacterial drugs ([1]; Resistance profile classification E): R; Susceptibility of Streptococcus pneumoniae to 14 antibacterial drugs ([1]; Resistance profile classification F): R; Susceptibility of Streptococcus pneumoniae to 14 antibacterial drugs [1, 7]: S; Susceptibility of Streptococcus pneumoniae to 14 antibacterial drugs [1, 8]: S; Susceptibility of Streptococcus pneumoniae to 14 antibacterial drugs [1, 9]: S; Susceptibility of Streptococcus pneumoniae to 14 antibacterial drugs [1, 10]: S; Susceptibility of Streptococcus pneumoniae to 14 antibacterial drugs [1, 14]: S
12 | high-level gentamicin [HLAR] | – | – | R | R | S | S | R | R | R | S | S | S | S | S | S | S | –
13 | CN[C@H](CC(C)C)C(=O)N[C@H]1C(=O)N[C@@H](CC(N)=O)C(=O)N[C@H]2C(=O)N[C@H]3C(=O)N[C@H](C(=O)N[C@H](C(=O)O)c4cc(O)cc(O)c4-c4cc3ccc4O)[C@H](O)c3ccc(c(Cl)c3)Oc3cc2cc(c3O[C@@H]2O[C@H](CO)[C@@H](O)[C@H](O)[C@H]2O[C@H]2C[C@](C)(N)[C@H](O)[C@H](C)O2)Oc2ccc(cc2Cl)[C@H]1O [vancomycin] | S | S | S | S | S | S | S | S | S | S | S | S | S | S | S | S | –
14 | CO/N=C(\C(=O)N[C@@H]1C(=O)N2C(C(=O)[O-])=C(C[N+]3(C)CCCC3)CS[C@H]12)c1csc(N)n1 [cefepime] | S | R | – | – | – | – | – | – | – | – | – | – | – | – | – | – | –
